# Read-outs that look alike come from different tables or passages of the source.
# Assays:
# [1] = reference compound with known pKa; cited from earlier work
# [2] = tested on: human lysosomal β-hexosaminidase (HEX); details: cited from earlier work
# human OGA (hOGA) = molecular target: T1, human OGA (hOGA) (Homo sapiens, UniProt O60502); experiment: Inhibition of hOGA-catalysed 4-MUGlcNAc hydrolysis (Ki determination); assay type: biochemical
# T1 construct: made in house
# T1 sequence (O60502 1-916): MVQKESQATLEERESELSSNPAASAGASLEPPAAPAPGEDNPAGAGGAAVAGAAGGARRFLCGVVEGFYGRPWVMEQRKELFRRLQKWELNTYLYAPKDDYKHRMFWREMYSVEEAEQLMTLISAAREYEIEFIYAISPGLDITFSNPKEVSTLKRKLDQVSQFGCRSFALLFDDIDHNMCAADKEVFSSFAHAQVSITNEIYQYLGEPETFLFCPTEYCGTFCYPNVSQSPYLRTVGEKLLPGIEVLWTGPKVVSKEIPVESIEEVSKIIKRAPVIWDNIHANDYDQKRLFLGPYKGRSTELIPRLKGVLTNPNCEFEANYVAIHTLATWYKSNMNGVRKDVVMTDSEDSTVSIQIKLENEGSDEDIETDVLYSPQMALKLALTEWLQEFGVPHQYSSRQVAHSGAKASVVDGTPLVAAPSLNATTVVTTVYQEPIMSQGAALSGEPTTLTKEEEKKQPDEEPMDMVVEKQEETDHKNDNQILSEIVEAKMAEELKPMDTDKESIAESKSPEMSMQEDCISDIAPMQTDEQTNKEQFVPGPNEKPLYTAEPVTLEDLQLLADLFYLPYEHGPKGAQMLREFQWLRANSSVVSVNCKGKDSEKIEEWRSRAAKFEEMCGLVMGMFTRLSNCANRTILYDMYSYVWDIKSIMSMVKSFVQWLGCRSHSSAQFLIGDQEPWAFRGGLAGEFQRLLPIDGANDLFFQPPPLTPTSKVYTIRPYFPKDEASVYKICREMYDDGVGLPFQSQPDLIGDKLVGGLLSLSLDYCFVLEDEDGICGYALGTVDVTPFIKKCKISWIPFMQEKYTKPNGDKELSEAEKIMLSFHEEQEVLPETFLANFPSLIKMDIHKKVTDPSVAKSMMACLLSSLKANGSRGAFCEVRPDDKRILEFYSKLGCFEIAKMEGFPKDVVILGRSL
# Excerpt: Refinement of the Morrison approach by Copeland enables defining the Ki value for an inhibitor through the use of relative rates using a quadratic equation (eqn (1)).[46] This approach depends on knowing the initial free enzyme and inhibitor concentrations without the assumption that the free inhibitor concentration is equal to the total inhibitor concentration.1 [drawing 1]
# Further, Ki values can be accurately determined over a wide range of enzyme concentrations using this method,[47] which enabled us to use hOGA concentrations that permit accurate initial rate determinations. […]
# (§1) Biological evaluation: Gene expression and protein purification. hOGA was expressed and purified according to the previously described procedure by Macauley et al.[5] hOGA was dialyzed twice against PBS buffer after purification and its concentration determined using the Nanodrop2000. Human β-hexosaminidase was obtained from Micheal Tropak at the Hospital for Sick Children in Toronto, without further purification.
# (§2) Kinetic analysis of hOGA. […]
# (§3) in PBS pH 7.4 buffer (0.03% BSA) in triplicate at 37°C for 20 minutes. A continuous assay procedure was performed in which the reactions were initiated by the addition of 4-MUGlcNAc substrate (50 µL or 100 µL via a multi-channel […]
# (§4) The excitation and emission were 350
# (§5) The amount of fluorogenic substrate liberated was quantitatively assessed by using a standard curve for 4-methylumbelliferone under identical buffer conditions. A total of 6-8 inhibitor concentrations were tested, […]
# (§6) The hOGA concentrations in the assays ranged from 0.8 nM to 20 nM, depending on whether the Ki being determined was through classic Michaelis-Menten methods or the Morrison Ki fit. For full Ki […]
# For the Morrison Ki analyses, only one substrate concentration was used (at the Km) since the method of inhibition was already known from analysis using the Line-weaver Burke plots.
# Kinetic analysis of substrates 18a-e were performed in triplicate using pH 7.4 PBS buffer (0.03% BSA) containing 2.5% DMF, with varying enzyme concentrations. […]
# [3] = molecular target: T2, human hexosaminidase B (hHexB) (Homo sapiens, UniProt P07686); experiment: Inhibition of human hexosaminidase B (4-MUGlcNAc substrate); assay type: biochemical; details: for (hHexB/hOGA) selectivity ratio: Ki hHexB / Ki hOGA, favored selectivity for hOGA; for Ki: pH 4.25, 37°C
# T2 construct: Micheal Tropak, Hospital for Sick Children, Toronto (gift, not a vendor)
# T2 sequence (P07686 122-556): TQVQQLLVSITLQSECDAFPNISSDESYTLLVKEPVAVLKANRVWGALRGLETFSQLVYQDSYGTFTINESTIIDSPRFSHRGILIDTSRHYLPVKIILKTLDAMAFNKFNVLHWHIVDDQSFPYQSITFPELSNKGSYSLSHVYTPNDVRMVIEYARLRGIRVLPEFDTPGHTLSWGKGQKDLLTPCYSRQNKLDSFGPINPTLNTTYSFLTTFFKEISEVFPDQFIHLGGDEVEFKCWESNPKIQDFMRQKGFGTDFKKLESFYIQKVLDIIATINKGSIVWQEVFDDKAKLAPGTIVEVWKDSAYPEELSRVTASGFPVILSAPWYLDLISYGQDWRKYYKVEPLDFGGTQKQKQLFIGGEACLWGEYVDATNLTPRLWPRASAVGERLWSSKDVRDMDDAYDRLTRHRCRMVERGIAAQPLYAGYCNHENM
# Excerpt: We next set out to assess the selectivity of this series of inhibitors for hOGA over the lysosomal β-hexosaminidases, which are comprised of combinations of α and β subunits that are products of the highly homologous HEXA and HEXB genes. […]
# as §1, §2, §3, §4, §5, §6
# For the Morrison Ki analyses, only one substrate concentration was used (at the Km) since the method of inhibition was already known from analysis using the Line-weaver Burke plots. […]
# Kinetic analysis of β-hexosaminidase. All assays were carried out in 96 well plates (Thermoscientific, FloroNunc, lot […]
# reactions were triggered by addition of substrate (20 µL or 15 µL) in a total volume of 45 or 40 µL. Reactions were […]
# detect the fluorescent signal. […]
# [4] = pKa determination using 13C NMR titration
# Experimental: (§7) In this way, a non-linear plot of the difference between NMR resonance frequencies for a compound of interest and those for a standard, such as 3-nitrophenol, can be used to determine the ratio (R) of the acid dissociation constants between these two materials.
# (§8) pK determination using 13C NMR. All titrations were carried out on the Bruker AVANCE II 600 MHz NMR
# (§9) spectrometer. The samples prepared for each titration contained 5 µL of 1,4-dioxane as an internal standard, an equal mol
# (§10) amount of inhibitor and 3-nitrophenol or 3.4-dinitrophenol (depending on the availability of each compound) in 500 µL of
# (§11) Each sample was made basic with 25-70 µL of 2M NaOH, and prior to
# (§12) titration, it was ensured that there was no change in chemical shift with further addition of base in 5 µL increments, in
# (§13) order to accurately establish the δd for each compound. The basic sample was then titrated with 10 µL of 0.5 M (15f-15h,
# (§14) titration was reached. The point where the chemical shift stopped changing was the recorded δp for each compound. The
# (§15) relative pKa (∆pKa) was then determined by non-linear fitting of data to Equation S1, which provides the value of R (R =
# (§16) K x/K r) and describes the relationship between the difference (∆) in chemical shifts (δ) between each compound of
# (§17) unknown pKa (x) and the reference compound with known pKa (r). δp and δd represent the chemical shifts of the protonated
# (§18) and de-protonated species of each compound, where ∆ expresses the difference between the de-protonated species (δ x –
# (§19) δd ), ∆ represents the difference between the deprotonated and protonated species of x (δd – δp ), and ∆ for that of the
# (§20) reference compound (∆r = δ r – δ r). The fractional protonation of the reference compound is represented by n and is equal
# We observed the 2′-carbon of the
# (§21) aminothiazoline system and the C-1 carbon of 3-nitrophenol since these are most proximal to the ionizable center. Fitting
# (§22) of the resulting data to Equation S1 (Figure 5 (ThiamEt-G), Supplemental Figure S7) enabled us to obtain values of R for
# (§23) each compound and, by comparison to the reference compound, absolute pKa values (Table 1). The observed pKa values
# physchem = details: aqueous solution (H2O/D2O) with reference phenol
# Experimental: as §7, §8, §9, §10, §11, §12, §13, §14, §15, §16, §17, §18, §19, §20
# We observed the 2′-carbon of the
# as §21, §22, §23
# hOGA = molecular target: T3, hOGA (Homo sapiens, UniProt O60502); details: cited from earlier work
# T3 construct: made in house
# T3 sequence (O60502 1-916): T1 sequence (O60502 1-916)
# [5] = Morrison Ki fit, 4-MUGlcNAc, PBS pH 7.4, 37°C, read-out: hOGA Ki
# [6] = Dixon plot analysis (approximate Ki)
# [7] = 3-nitrophenol as reference compound
# [8] = Michaelis–Menten inhibition analysis, 4-MUGlcNAc, PBS pH 7.4, 37°C, read-out: hOGA Ki
# [9] = 3,4-dinitrophenol as reference compound
smiles,measurement,setting,value
O=[N+]([O-])c1cccc(O)c1 [3-nitrophenol],pKa,[1],8.42
"CC(=O)N[C@H]1CN2CC[C@H](O)[C@@H]2[C@@H](O)[C@@H]1O [6-Ac-Cas, 6-acetamido-6-deoxy-castanospermine]",selectivity for hOGA over lysosomal β-hexosaminidases,[2]; in words,non-selective
NC1=N[C@@H]2[C@@H](O)[C@H](O)[C@@H](CO)O[C@@H]2S1 [11a],Ki,human OGA (hOGA); [5],0.0047 ± 0.0003 µM
same,(hHexB/hOGA) selectivity ratio,[3],1100
same,Ki,[3]; Michaelis–Menten inhibition analysis (full Ki),5 ± 0.6 µM
C=CCNC1=N[C@@H]2[C@@H](O)[C@H](O)[C@@H](CO)O[C@@H]2S1 [11b],mode of inhibition of hOGA,human OGA (hOGA); Lineweaver–Burk / Michaelis-Menten analysis,competitive inhibition
same,Ki,"human OGA (hOGA); Michaelis-Menten analysis, hOGA 0.8 nM (Figure S2A), read-out: hOGA Ki",0.0023 ± 0.0003 µM
same,Ki,human OGA (hOGA); [5],0.0032 ± 0.0004 µM
same,Ki,"human OGA (hOGA); Morrison approach, hOGA 10 nM, substrate 60 µM (Figure S2B), read-out: hOGA Ki",0.0032 ± 0.0004 µM
same,Ki,"human OGA (hOGA); graphical determination, Km app against inhibitor concentration (Figure S2A inset), read-out: hOGA Ki",0.0047 µM
same,Ki,[3]; [6],2850 ± 570 µM
same,(hHexB/hOGA) selectivity ratio,[3],950 000
CN(C)C1=N[C@@H]2[C@@H](O)[C@H](O)[C@@H](CO)O[C@@H]2S1 [15b],Ki,[3]; [6],13 ± 3.8 µM
"CCNC1=N[C@@H]2[C@@H](O)[C@H](O)[C@@H](CO)O[C@@H]2S1 [15c, 1,2-dideoxy-2′-ethylamino-α-D-glucopyranoso-[2,1-d]-Δ2′-thiazoline]",R (Kax/Kar),[4]; [7],0.1823 ± 0.0042
same,Fraction protonated at pH 7.4,[4],0.66
same,Ki,[2]; read-out: hHexB Ki,740 ± 60 µM
same,pKa,physchem,7.68
CCCNC1=N[C@@H]2[C@@H](O)[C@H](O)[C@@H](CO)O[C@@H]2S1 [15d],Ki,human OGA (hOGA); [5],0.002 ± 0.0002 µM
same,Ki,[3]; [6],3700 ± 670 µM
same,(hHexB/hOGA) selectivity ratio,[3],1 850 000
CCCCNC1=N[C@@H]2[C@@H](O)[C@H](O)[C@@H](CO)O[C@@H]2S1 [15e],Ki,human OGA (hOGA); [8],0.35 ± 0.09 µM
same,Ki,[3]; [6],4800 ± 763 µM
same,(hHexB/hOGA) selectivity ratio,[3],13 700
OC[C@H]1O[C@@H]2SC(NCCF)=N[C@@H]2[C@@H](O)[C@@H]1O [15f],R (Kax/Kar),[4]; [7],0.0316 ± 0.0063
same,Fraction protonated at pH 7.4,[4],0.25
same,pKa,physchem,6.92
same,Ki,human OGA (hOGA),0.015 ± 0.005 µM
same,Ki,[3]; [6],180 ± 44 µM
same,(hHexB/hOGA) selectivity ratio,[3],12 000
OC[C@H]1O[C@@H]2SC(NCC(F)F)=N[C@@H]2[C@@H](O)[C@@H]1O [15g],R (Kax/Kar),[4]; [7],0.0058 ± 0.0002
same,Fraction protonated at pH 7.4,[4],0.06
same,pKa,physchem,6.18
same,Ki,human OGA (hOGA); [8],0.06 ± 0.01 µM
same,Ki,[3]; [6],150 ± 50 µM
same,(hHexB/hOGA) selectivity ratio,[3],2500
OC[C@H]1O[C@@H]2SC(NCC(F)(F)F)=N[C@@H]2[C@@H](O)[C@@H]1O [15h],R (Kax/Kar),[4]; [9],1.213 ± 0.049
same,Fraction protonated at pH 7.4,[4],0.01
same,pKa,physchem,5.33
same,Ki,human OGA (hOGA); [8],1 ± 0.2 µM
same,Ki,[3]; [6],4200 ± 1530 µM
same,(hHexB/hOGA) selectivity ratio,[3],4200
CC(C)C(=O)N[C@H]1c2nc(CCc3ccccc3)cn2[C@H](CO)[C@@H](O)[C@@H]1O [GlcNAcstatin C],Ki,hOGA,0.0032 µM
same,Ki(HEX)/Ki(hOGA),[2],190
C=CC=CC(=O)N[C@H]1c2nc(CCc3ccccc3)cn2[C@H](CO)[C@@H](O)[C@@H]1O [GlcNAcstatin G],Ki,hOGA,0.0041 µM
same,Ki(HEX)/Ki(hOGA),[2],900 000
CCCCC(=O)N[C@H]1c2nc(CCc3ccccc3)cn2[C@H](CO)[C@@H](O)[C@@H]1O [GlcNAcstatin H],Ki(HEX)/Ki(hOGA),[2],35 000
"CCCC1=N[C@@H]2[C@@H](O)[C@H](O)[C@@H](CO)O[C@@H]2S1 [NButGT, reference compound]",R (Kax/Kar),[4]; [9],5.47 ± 3.28
same,Ki(HEX)/Ki(hOGA),[2]; selectivity for hOGA over lysosomal β-hexosaminidases,"1,500"
same,pKa,physchem,4.65

# From article PMC6008586, “Analysis of transition state mimicry by tight binding aminothiazoline inhibitors provides insight into catalysis by human O-GlcNAcase” (Chemical Science, 2016)
